Reference: US20240190910A1, “HEMI-CITRATE SALTS OF GABA-A POSITIVE […] AND CRYSTALLINE FORM THEREOF” (priority 2021, published 2024)
Several values for one entry are separate records, joined by “and”; a condition that tells them apart may be missing. Identical values can stand only once. Counter-ions that a name gives are not always drawn. Like-named read-outs stand apart in the source and are kept apart here.

Legend:
Type in all cases: physicochemical
[1] = Gelation experiments in aqueous media; conditions: for concentration at which rapidly gelled: 0.1 N HCl media; for gelation in water or pH 7.4 buffer: 0.5-10 mg/mL
Experimental: To confirm these findings, controlled experiments were conducted where the free base, mono-citrate, and hemi-citrate salts of Compound 1 were dissolved in aqueous media at concentrations between 0.5 mg/mL and 10 mg/mL. The dissolution experiments were performed in either 0.1 N HCl, water, or pH 7.4 buffer as aqueous media.

[2] = True density by helium pycnometry
Experimental: The equipment used was a Micromeritics AccuPyc II 1340, and the test parameters are set forth below. Testing was performed in duplicate (assuming target <2% variability achieved).
The true density of the material was determined by Helium Pycnometry.
The equipment used in this study was a Micromeritics AccuPyc II 1340, and the test parameters are the same as described in Example 10. The testing was performed in duplicate (assuming target <2% variability achieved).

[3] = Compaction characterization by Heckel analysis (yield pressure, strain rate sensitivity, crushing strength); conditions: for Yield pressure Fast (300 mm/s) / Yield pressure Slow (0.1 mm/s): summary of runs (± spread); for Strain rate sensitivity: yield pressure at 300 mm/s compared to 0.1 mm/s
Experimental: The aim of the Heckel test is to compress the material under controlled conditions to derive the yield pressure of the bulk material. A known weight of material is compressed within a 10 mm diameter die with flat faced punches moving at a set speed. The force on the punch is accurately measured at frequent intervals whilst the displacement of the punches is used to calculate the volume of the powder. The yield pressure is calculated at slow and fast punch speeds to assess the time-dependent component to deformation of the material.
A known weight of pure drug is compacted to theoretical zero porosity using 10 mm diameter flat faced punches. The Compaction Simulator was used under the following conditions:
During compression the location of the punch tips are accurately determined, and the force measured by load cells producing a record of the primary compression parameters. Temperature and humidity were monitored at intervals during the test.
The data were analyzed by the Compaction Analysis software program to generate values for yield pressure (Py) using the Heckel equation:
where • D=the relative density of the compact; • P=Pressure applied; and • K=Gradient of the line in the linear region; [Reference: R. W. Heckel. Trans. Metall. Soc. AIME 221 (1961)1001-1008].
For some materials, the deformation characteristics change with rate of applied force. This can be estimated by calculating the Strain Rate Sensitivity. The yield pressure at high speed compression is compared to that at slow speed using the following equation: […]

[4] = Dynamic vapor sorption (DVS) hygroscopicity
Experimental: DVS was measured via a SMS (Surface Measurement System) DVS Intrinsic. Parameters for DVS data collection were as follows:
A second endotherm (having an onset at 121.5° C.) associated with melting of the dehydrated phase (ΔH: 15.20 J/g) was followed by a rapid decomposition as temperature continued to increase (FIG. 3). Because of the low onset of dehydration, the DVS was measured at both room temperature and at 40° C. to predict the stability of the crystalline phase at 40° C. […] A 1.5% weight loss was observed between 95% and 20% RH, and a 2.9% weight loss was observed between 20% and 0% RH, for a total loss of […] across the entire cycle. […] After measuring the hygroscopicity by DVS, an XRPD pattern was collected for comparison to the original material and found to correspond well to the pattern of the room temperature sample post-DVS temperature cycle (FIG. 6).

[5] = Tablet chemical stability: C17 epimer generation on storage at 40° C./75% RH; conditions: tablet dosage form, sealed bottle, 1 or 2 months, compared with mono-citrate salt
Experimental: FIG. 12 is a graph comparing the amount of the C17 epimer, a degradation product of Compound 1, over time for a tablet formulation containing Compound 1 hemi-citrate salt (Form I; left column in both “1 month” and “2 months”) or Compound 1 mono-citrate salt (Form A; right column in both “1 month” and “2 months”) in sealed bottles stored at 40° C./75% RH).

[6] = Tablet dissolution: percent release of Compound 1 from acidified tablet formulation
Experimental: FIG. 13 is a graph showing percent release of Compound 1 over time for an acidified tablet formulation containing Compound 1 hemi-citrate salt Form I. Tablets were used initially or maintained at 40° C./75% RH for 2 weeks, 1 month, or 2 months.
FIG. 14 is a graph showing percent release of Compound 1 over time for an acidified tablet formulation containing Compound 1 mono-citrate salt (Form A). Tablets were used initially or stored at 40° C./75% RH for 2 weeks, 1 month, or 2 months.

[7] = fast speed 300 mm/s, individual runs, 21.7° C./38.9% RH
[8] = slow speed 0.1 mm/s, individual runs, 21.6° C./37.1% RH

## COC[C@@]1(O)CC[C@@]2(C)[C@@H](CC[C@@H]3[C@@H]2CC[C@]2(C)[C@@H](C(=O)Cn4ccnc4)CC[C@@H]32)C1 [Compound 1, 3α-hydroxy-3β-methoxymethyl-21-(1′-imidazolyl)-5α-pregnan-20-one]
[1]
  concentration at which rapidly gelled: 1000 µg/mL
  gelation in water or pH 7.4 buffer: did not gel

## COC[C@@]1(O)CC[C@@]2(C)[C@@H](CC[C@@H]3[C@@H]2CC[C@]2(C)[C@@H](C(=O)Cn4ccnc4)CC[C@@H]32)C1.O=C(O)CC(O)(CC(=O)O)C(=O)O [Compound 1 mono-citrate salt]
[1]
  concentration at which rapidly gelled: 5000 µg/mL
  gelation in water or pH 7.4 buffer: did not gel

## COC[C@@]1(O)CC[C@@]2(C)[C@@H](CC[C@@H]3[C@@H]2CC[C@]2(C)[C@@H](C(=O)Cn4ccnc4)CC[C@@H]32)C1.O=C(O)CC(O)(CC(=O)O)C(=O)O [Compound 1 mono-citrate salt Form A]
[2]
  true density mean: 1.2666 g/mL
[3]; [7]
  Compact observations: Laminated
  Compact strength: 9.75 Kiloponds and 12.38 Kiloponds and 5.09 Kiloponds
  Ejection Force: 0.740 kN and 0.649 kN and 0.719 kN
  Peak Force of Upper punch: 14.137 kN and 14.545 kN and 14.488 kN
  Yield Pressure: 105.169 MPa and 111.204 MPa and 110.483 MPa
[3]; [8]
  Compact observations: Ok
  Compact strength: 15.99 Kiloponds and 17.94 Kiloponds and 15.97 Kiloponds and 16.04 Kiloponds
  Ejection Force: 0.603 kN and 0.426 kN and 0.518 kN and 0.462 kN
  Peak Force of Upper punch: 18.227 kN and 22.470 kN and 20.499 kN and 22.020 kN
  Yield Pressure: 70.114 MPa and 92.323 MPa and 85.677 MPa and 90.406 MPa
[3]; fast speed 300 mm/s
  Yield pressure Fast (300 mm/s): 108.95 MPa (±3.30)
[3]; slow speed 0.1 mm/s
  Yield pressure Slow (0.1 mm/s): 84.63 MPa (±10.07)
[3]
  Strain rate sensitivity: 28.7%

## COC[C@@]1(O)CC[C@@]2(C)[C@@H](CC[C@@H]3[C@@H]2CC[C@]2(C)[C@@H](C(=O)Cn4ccnc4)CC[C@@H]32)C1 [Compound 1 hemi-citrate salt Form I]
[4]; 40° C.
  total loss (DVS): 5.4%
  water absorption from 20% to 80% RH (DVS): 1.8%
  water lost between 95% and 20% RH (DVS): 2.2%
  water lost from 20% to 0% RH (DVS): 3.2%
[4]; DVS at room temperature and 40° C.
  hygroscopicity: slightly hygroscopic
[4]; room temperature
  total loss across the entire cycle (DVS): 4.3%
  water uptake between 20% and 80% RH (DVS): 1.2%
  weight loss between 20% and 0% RH (DVS): 2.9%
  weight loss between 95% and 20% RH (DVS): 1.5%
[2]
  true density mean: 1.2621 g/mL
[3]
  Compact observations: Ok and Chipped and Capped
  Ejection Force: 0.416 kN and 0.445 kN and 0.479 kN and 0.747 kN and 0.736 kN and 0.745 kN
  Peak Force of Upper punch: 20.607 kN and 21.683 kN and 19.936 kN and 14.028 kN and 13.909 kN and 14.571 kN
  Yield Pressure: 67.480 MPa and 73.595 MPa and 67.397 MPa and 83.127 MPa and 80.626 MPa and 89.401 MPa
  Strain rate sensitivity: 21.4%
[3]; fast speed 300 mm/s
  Yield pressure Fast (300 mm/s): 84.38 MPa (±4.52)
[3]; slow speed 0.1 mm/s
  Yield pressure Slow (0.1 mm/s): 69.49 MPa (±3.55)

## COC[C@@]1(O)CC[C@@]2(C)[C@@H](CC[C@@H]3[C@@H]2CC[C@]2(C)[C@@H](C(=O)Cn4ccnc4)CC[C@@H]32)C1 [Compound 1 hemi-citrate salt]
[5]
  degradation product (C17-epimer) generated: less degradation product
[6]; compared with Compound 1 mono-citrate salt
  susceptibility to dissolution slow-down of the tablet: less susceptible
[6]; initial and tablet stored in open dish at 40° C./75% RH for 2 weeks, 1 month, 2 months, compared with mono-citrate salt
  release of Compound 1 from an acidified formulation over time: greater
[1]; 0.1 N HCl, water, or pH 7.4 buffer, concentrations up to 10 mg/mL
  gelation in aqueous media: did not gel
